Laboratory results from patent US20180148418A1, “AMIDO-SUBSTITUTED CYCLOHEXANE DERIVATIVES” (Bayer Pharma Aktiengesellschaft, priority 2015, published 2018).

Assays:
[1] = test system: wildtype Wnt signaling cascade; experiment: HEK293 TOP assay (Super TopFlash luciferase reporter, Wnt-3a stimulated); format: cell-based; settings: Homo sapiens, HEK293, 16 h, HEK293 TOP reporter cells, Wnt3a at EC50, 16 hours
In short: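 Compound series (50 μM down to 15 nM, 3.16-fold) diluted from DMSO 50-fold into CAFTY buffer, pH 7.4, 2 mM Ca^2+, 0.01% BSA, applied to Wnt-3a-stimulated HEK293 TopFlash and FOP reporter lines in parallel. Cells seeded 10000/well 24 h before; luciferase signal measured.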

TNKS1 = biological target: T1, TNKS1 (Homo sapiens, UniProt O95271); experiment: TNKS1 Assay B (auto-parsylation, [3H]-NAD+ SPA); format: biochemical; settings: 6 nM TNKS1, auto-parsylation, over night at room temperature
T1 construct: purchased BPS Bioscience, San Diego, USA 80579 (TNKS1 Histone Ribosylation Assay Kit)
T1 sequence (O95271 1-1327): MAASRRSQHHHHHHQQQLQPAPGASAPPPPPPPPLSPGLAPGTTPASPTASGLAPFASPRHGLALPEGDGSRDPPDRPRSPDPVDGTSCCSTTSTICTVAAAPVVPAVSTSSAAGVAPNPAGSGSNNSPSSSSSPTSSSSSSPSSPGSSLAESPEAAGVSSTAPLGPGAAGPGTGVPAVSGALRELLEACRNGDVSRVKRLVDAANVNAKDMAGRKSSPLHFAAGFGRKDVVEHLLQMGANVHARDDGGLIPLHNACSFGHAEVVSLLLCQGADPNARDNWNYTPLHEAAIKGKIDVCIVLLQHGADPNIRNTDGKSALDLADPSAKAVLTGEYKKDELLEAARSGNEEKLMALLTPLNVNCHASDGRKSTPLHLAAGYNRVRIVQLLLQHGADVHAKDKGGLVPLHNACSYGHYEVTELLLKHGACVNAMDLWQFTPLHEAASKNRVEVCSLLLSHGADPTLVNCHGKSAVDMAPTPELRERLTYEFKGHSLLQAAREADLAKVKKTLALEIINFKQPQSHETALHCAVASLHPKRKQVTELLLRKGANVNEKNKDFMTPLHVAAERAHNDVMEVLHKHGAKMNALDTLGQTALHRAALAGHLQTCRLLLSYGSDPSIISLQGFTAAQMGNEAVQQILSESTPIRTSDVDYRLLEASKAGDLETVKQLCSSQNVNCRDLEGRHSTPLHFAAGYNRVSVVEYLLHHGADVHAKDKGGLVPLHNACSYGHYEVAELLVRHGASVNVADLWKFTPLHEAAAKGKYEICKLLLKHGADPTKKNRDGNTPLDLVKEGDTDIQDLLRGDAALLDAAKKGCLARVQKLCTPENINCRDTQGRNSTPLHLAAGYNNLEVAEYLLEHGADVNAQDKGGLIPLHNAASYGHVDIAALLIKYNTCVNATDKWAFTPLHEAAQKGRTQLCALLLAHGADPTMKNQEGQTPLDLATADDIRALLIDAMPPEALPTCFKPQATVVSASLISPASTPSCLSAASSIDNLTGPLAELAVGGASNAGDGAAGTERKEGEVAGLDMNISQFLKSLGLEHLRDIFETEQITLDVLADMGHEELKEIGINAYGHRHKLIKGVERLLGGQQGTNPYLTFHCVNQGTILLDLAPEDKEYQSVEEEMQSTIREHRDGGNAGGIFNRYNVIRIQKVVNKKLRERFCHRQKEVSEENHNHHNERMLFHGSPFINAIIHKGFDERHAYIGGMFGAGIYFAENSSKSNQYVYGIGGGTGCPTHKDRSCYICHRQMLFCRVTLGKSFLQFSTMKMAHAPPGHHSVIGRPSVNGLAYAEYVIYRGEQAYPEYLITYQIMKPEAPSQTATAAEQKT

| SMILES | IC50 [1] | IC50 (TNKS1) |
| --- | --- | --- |
| Cc1ccccc1N(C)C(=O)[C@H]1CC[C@H](NC(=O)c2cnn3cccnc23)CC1 [Example 178, N-{trans-4-[methyl(2-methylphenyl)carbamoyl]cyclohexyl}pyrazolo[1,5-a]pyrimidine-3-carboxamide] | 0.56 µM | 0.33 µM |
| C[C@]1(C(=O)Nc2ccc(F)cc2Cl)CC[C@H](NC(=O)c2cnn3cccnc23)CC1 [Example 179, N-{trans-4-[(2-chloro-4-fluorophenyl)carbamoyl]-4-methylcyclohexyl}pyrazolo[1,5-a]pyrimidine-3-carboxamide] | 0.41 µM | 0.97 µM |
| C[C@]1(C(=O)Nc2ccc(F)cc2Cl)CC[C@@H](NC(=O)c2cnn3cccnc23)CC1 [Example 180, N-{cis-4-[(2-chloro-4-fluorophenyl)carbamoyl]-4-methylcyclohexyl}pyrazolo[1,5-a]pyrimidine-3-carboxamide] | 7.6 µM | > 10 µM |
| CNC(=O)c1[nH]cnc1C(=O)N[C@H]1CC[C@@](C)(C(=O)Nc2ccc(F)cc2Cl)CC1 [Example 181, N^4-{cis-4-[(2-chloro-4-fluorophenyl)carbamoyl]-4-methylcyclohexyl}-N^5-methyl-1H-imidazole-4,5-dicarboxamide] | 9.6 µM | > 10 µM |
| CNC(=O)c1nc[nH]c1C(=O)N[C@H]1CC[C@]2(CCN(c3ccc(F)cc3Cl)C2=O)CC1 [Example 182, N^5-[(cis)-2-(2-chloro-4-fluorophenyl)-1-oxo-2-azaspiro[4.5]dec-8-yl]-N^4-methyl-1H-imidazole-4,5-dicarboxamide] | 0.19 µM | 2.2 µM |
| CC1CN(C(=O)c2nc[nH]c2C(=O)N[C@H]2CC[C@@]3(CCN(c4ccc(F)cc4Cl)C3=O)CC2)CCS(=O)(=O)C1 (stereo partly drawn) [Example 183, N-[(trans)-2-(2-chloro-4-fluorophenyl)-1-oxo-2-azaspiro[4.5]dec-8-yl]-4-[(6-methyl-1,1-dioxido-1,4-thiazepan-4-yl)carbonyl]-1H-imidazole-5-carboxamide] | 0.21 µM | 0.7 µM |
| CN1CC2(CCN(C(=O)c3nc[nH]c3C(=O)N[C@H]3CC[C@@]4(CCN(c5ccc(F)cc5Cl)C4=O)CC3)C2)C1 [Example 184, N-[(trans)-2-(2-chloro-4-fluorophenyl)-1-oxo-2-azaspiro[4.5]dec-8-yl]-4-[(2-methyl-2,6-diazaspiro[3.4]oct-6-yl)carbonyl]-1H-imidazole-5-carboxamide] | 0.021 µM | 0.01 µM |
| CN1CC2(C1)CN(C(=O)c1nc[nH]c1C(=O)N[C@H]1CC[C@@]3(CCN(c4ccc(F)cc4Cl)C3=O)CC1)C2 [Example 185, N-[(trans)-2-(2-chloro-4-fluorophenyl)-1-oxo-2-azaspiro[4.5]dec-8-yl]-4-[(6-methyl-2,6-diazaspiro[3.3]hept-2-yl)carbonyl]-1H-imidazole-5-carboxamide] | 0.0061 µM | 0.0087 µM |
| NC(=O)c1nc[nH]c1C(=O)N[C@H]1CC[C@@]2(CCN(c3ccc(F)cc3Cl)C2=O)CC1 [Example 186, N^5-[(trans)-2-(2-chloro-4-fluorophenyl)-1-oxo-2-azaspiro[4.5]dec-8-yl]-1H-imidazole-4,5-dicarboxamide] | 0.0021 µM | 0.018 µM |
| CN1CC(NC(=O)c2nc[nH]c2C(=O)N[C@H]2CC[C@@]3(CCN(c4ccc(F)cc4Cl)C3=O)CC2)C1 [Example 187, N^5-[(trans)-2-(2-chloro-4-fluorophenyl)-1-oxo-2-azaspiro[4.5]dec-8-yl]-N^4-(1-methylazetidin-3-yl)-1H-imidazole-4,5-dicarboxamide] | 0.0059 µM | 0.012 µM |
| O=C(N[C@H]1CC[C@@]2(CCN(c3ccc(F)cc3Cl)C2=O)CC1)c1nc[nH]c1C(=O)NCC(F)(F)F [Example 195, N^4-[(trans)-2-(2-chloro-4-fluorophenyl)-1-oxo-2-azaspiro[4.5]dec-8-yl]-N^5-(2,2,2-trifluoroethyl)-1H-imidazole-4,5-dicarboxamide] | 0.0013 µM | 0.011 µM |
| CNC(=O)c1nc[nH]c1C(=O)N[C@H]1CC[C@@]2(CCN(c3cc(F)c(F)cc3Cl)C2=O)CC1 [Example 196, N^5-[(trans)-2-(2-chloro-4,5-difluorophenyl)-1-oxo-2-azaspiro[4.5]dec-8-yl]-N^4-methyl-1H-imidazole-4,5-dicarboxamide] | 0.00074 µM | 0.0067 µM |
| CCNC(=O)c1nc[nH]c1C(=O)N[C@H]1CC[C@@]2(CCN(c3cc(F)c(F)cc3Cl)C2=O)CC1 [Example 197, N^5-[(trans)-2-(2-chloro-4,5-difluorophenyl)-1-oxo-2-azaspiro[4.5]dec-8-yl]-N^4-ethyl-1H-imidazole-4,5-dicarboxamide] | 0.00074 µM | 0.0045 µM |
| CC(C)NC(=O)c1nc[nH]c1C(=O)N[C@H]1CC[C@@]2(CCN(c3cc(F)c(F)cc3Cl)C2=O)CC1 [Example 198, N^5-[(trans)-2-(2-chloro-4,5-difluorophenyl)-1-oxo-2-azaspiro[4.5]dec-8-yl]-N^4-(propan-2-yl)-1H-imidazole-4,5-dicarboxamide] | 0.0017 µM | 0.008 µM |
| O=C(NC1CC1)c1nc[nH]c1C(=O)N[C@H]1CC[C@@]2(CCN(c3cc(F)c(F)cc3Cl)C2=O)CC1 [Example 199, N^5-[(trans)-2-(2-chloro-4,5-difluorophenyl)-1-oxo-2-azaspiro[4.5]dec-8-yl]-N^4-cyclopropyl-1H-imidazole-4,5-dicarboxamide] | 0.00098 µM | 0.0075 µM |
| O=C(N[C@H]1CC[C@@]2(CCN(c3cc(F)c(F)cc3Cl)C2=O)CC1)c1[nH]cnc1C(=O)N1CC(F)C1 [Example 200, N-[(trans)-2-(2-chloro-4,5-difluorophenyl)-1-oxo-2-azaspiro[4.5]dec-8-yl]-4-[(3-fluoroazetidin-1-yl)carbonyl]-1H-imidazole-5-carboxamide] | 0.00017 µM | 0.0069 µM |
| O=C(NCC(F)(F)F)c1nc[nH]c1C(=O)N[C@H]1CC[C@@]2(CCN(c3cc(F)c(F)cc3Cl)C2=O)CC1 [Example 201, N^5-[(trans)-2-(2-chloro-4,5-difluorophenyl)-1-oxo-2-azaspiro[4.5]dec-8-yl]-N^4-(2,2,2-trifluoroethyl)-1H-imidazole-4,5-dicarboxamide] | 0.00054 µM | 0.0055 µM |
| COCCNC(=O)c1nc[nH]c1C(=O)N[C@H]1CC[C@@]2(CCN(c3cc(F)c(F)cc3Cl)C2=O)CC1 [Example 202, N^5-[(trans)-2-(2-chloro-4,5-difluorophenyl)-1-oxo-2-azaspiro[4.5]dec-8-yl]-N^4-(2-methoxyethyl)-1H-imidazole-4,5-dicarboxamide] | 0.00055 µM | 0.0073 µM |
| CNC(=O)c1nc[nH]c1C(=O)N[C@H]1CC[C@H](C(=O)N(C)c2ccccc2C)CC1 [Example 203, N^4-methyl-N^5-{trans-4-[methyl(2-methylphenyl)carbamoyl]cyclohexyl}-1H-imidazole-4,5-dicarboxamide] | 25 µM | 0.63 µM |
| O=C(N[C@H]1CC[C@H](C(=O)Nc2ccc(F)cc2Cl)CC1)c1cnn2ccccc12 [Example 205, N-{trans-4-[(2-chloro-4-fluorophenyl)carbamoyl]cyclohexyl}pyrazolo[1,5-a]pyridine-3-carboxamide] | 0.5 µM | > 10 µM |
| O=C(N[C@H]1CC[C@H](C(=O)Nc2ccc(F)cc2Cl)CC1)c1cnc2ccccn12 [Example 206, N-{trans-4-[(2-chloro-4-fluorophenyl)carbamoyl]cyclohexyl}imidazo[1,2-a]pyridine-3-carboxamide] | 0.5 µM | > 10 µM |
